From PMC10424185, “C-2 Thiophenyl Tryptophan Trimers Inhibit Cellular Entry of SARS-CoV-2 through Interaction with the Viral Spike (S) Protein” (Journal of Medicinal Chemistry, 2023)
Entries after “also recorded” stand apart in the source; their conditions may differ. Like-named read-outs stand apart in the source and are kept apart here.

How the values were obtained:
[1] = system: VSV-S (pseudotyped VSV carrying the S protein of Wuhan-Hu-1 SARS-CoV-2); assay: microbe, parasite or virus in culture; assay type: cell-based
[2] = system: VSV-S (pseudotyped VSV carrying the S protein of Wuhan-Hu-1 SARS-CoV-2); assay: microbe, parasite or virus in culture; assay type: cell-based; settings: Vesicular stomatitis virus, read-out: IC50 (concentration at which virus infection is reduced by 50%), VSV-S in A549-ACE2-TMPRSS2 cells
VSV-SWuhan-Hu-1 = assay: microbe, parasite or virus in culture; assay type: cell-based, SARS-CoV-2; settings: Vesicular stomatitis virus, VeroE6/TMPRSS2, read-out: IC50 ± SD, pseudotyped VSV carrying S of Wuhan-Hu-1
[3] = system: VSV-SOmicron (S protein of SARS-CoV-2 Omicron BA.1); assay: organism not typed; assay type: cell-based; settings: read-out: IC50 ± SD, pseudotyped VSV carrying S of Omicron BA.1
SARS-CoV-2 RBD [4] = target: T1, SARS-CoV-2 RBD (Severe acute respiratory syndrome coronavirus 2, UniProt P0DTC2); assay type: binding
[5] = target: binding of human ACE2 catalytic domain to RBD (Severe acute respiratory syndrome coronavirus 2, UniProt P0DTC2); design: species or system SARS-CoV-2 / human
[6] = system: VSV-G (VSV pseudotyped with its native glycoprotein); assay type: cell-based, vesicular stomatitis virus
in vitro [7] = settings: African green monkey
in vitro [8] = settings: human
SARS-CoV-2 RBD [9] = target: T1, SARS-CoV-2 RBD; assay: biochemical; assay type: binding
[10] = Vesicular stomatitis virus, Vero C1008, read-out: IC50 (concentration at which virus infection is reduced by 50%), VSV-S in Vero E6 cells

Question: For `NCC(=O)NC(CCC(=O)NC(Cc1c(Sc2ccc([N+](=O)[O-])cc2)[nH]c2ccccc12)C(=O)O)(CCC(=O)NC(Cc1c(Sc2ccc([N+](=O)[O-])cc2)[nH]c2ccccc12)C(=O)O)CCC(=O)NC(Cc1c(Sc2ccc([N+](=O)[O-])cc2)[nH]c2ccccc12)C(=O)O` (centres unmarked) [Compound 2], which “infection (viral GFP reporter) when compound added one-hour post virus addition” value [1] is on record?
Answer: no decrease in infection

Question: What about the “infection (viral GFP reporter) when compound added together with the virus” value [1] of the same compound?
Answer: strong reduction in infection

Question: What about the “primary HTS screening result (in words)” value [1] of the same compound?
Answer: significant antiviral activity in the absence of cytotoxicity

Question: What about the IC50 [1, 10] of the same compound?
Answer: 0.64 ± 0.47 µM

Question: What about the IC50 ([1]; Vesicular stomatitis virus, Vero C1008, read-out: IC50, compound preincubated with the cells) of the same compound?
Answer: 0.32 µM

Question: And the IC50 ([1]; Vesicular stomatitis virus, Vero C1008, read-out: IC50, compound preincubated with the virus)?
Answer: 0.48 µM

Question: And the IC50 ([1]; read-out: IC50 (concentration at which virus infection is reduced by 50%), VSV-S in Vero E6 cells)?
Answer: 0.6 ± 0.5 µM

Question: And the IC50 [2]?
Answer: 1 ± 0.4 µM

Question: And the IC50 (VSV-SWuhan-Hu-1)?
Answer: 0.08 ± 0.07 µM

Question: And the IC50 [3]?
Answer: 21.7 ± 0.83 µM

Question: And the “effect on thermofluor fluorescence profile / thermal stability of RBD (in words)” value (SARS-CoV-2 RBD [4])?
Answer: shift of the curve toward lower temperatures

Question: What about the “increase of ACE2 concentrations needed for binding to the RBD” value [5] of the same compound?
Answer: ~10 fold

Question: And the “antiviral activity against VSV-G” value [6]?
Answer: no antiviral activity

Question: And the CC50 (in vitro [7])?
Answer: > 100 µM

Question: What about the CC50 (in vitro [8]) of the same compound?
Answer: > 100 µM

Question: Which “antiviral activity in the VSV-S assay (in words)” value [1] does the source give for `CS(=O)(=O)c1ccc(Sc2[nH]c3ccccc3c2CC(NC(=O)CCC(CCC(=O)NC(Cc2c(Sc3ccc(S(C)(=O)=O)cc3)[nH]c3ccccc23)C(=O)O)(CCC(=O)NC(Cc2c(Sc3ccc(S(C)(=O)=O)cc3)[nH]c3ccccc23)C(=O)O)NC(=O)CN)C(=O)O)cc1` (centres unmarked) [Compound 42] here?
Answer: no antiviral activity

Question: What about the IC50 [1, 10] of the same compound?
Answer: > 50 µM

Question: And the “effect on thermofluor fluorescence profile / thermal stability of RBD (in words)” value (SARS-CoV-2 RBD [4])?
Answer: did not cause any change in the curve; also recorded: no effect on the thermal stability of the RBD

Question: And the Kd (SARS-CoV-2 RBD [9])?
Answer: ≥ 2500 µM

Question: What about the CC50 (in vitro [7]) of the same compound?
Answer: > 100 µM
